The target in the assay is Calcium-activated potassium channel subunit alpha-1 (Homo sapiens) (UniProt Q12791). Nature of the assay: The compound was tested for maxi-K channel opening property at concentration of 20 uM, activity expressed as percentage of current.
Chain of Calcium-activated potassium channel subunit alpha-1 (Homo sapiens) (Q12791 whole entry): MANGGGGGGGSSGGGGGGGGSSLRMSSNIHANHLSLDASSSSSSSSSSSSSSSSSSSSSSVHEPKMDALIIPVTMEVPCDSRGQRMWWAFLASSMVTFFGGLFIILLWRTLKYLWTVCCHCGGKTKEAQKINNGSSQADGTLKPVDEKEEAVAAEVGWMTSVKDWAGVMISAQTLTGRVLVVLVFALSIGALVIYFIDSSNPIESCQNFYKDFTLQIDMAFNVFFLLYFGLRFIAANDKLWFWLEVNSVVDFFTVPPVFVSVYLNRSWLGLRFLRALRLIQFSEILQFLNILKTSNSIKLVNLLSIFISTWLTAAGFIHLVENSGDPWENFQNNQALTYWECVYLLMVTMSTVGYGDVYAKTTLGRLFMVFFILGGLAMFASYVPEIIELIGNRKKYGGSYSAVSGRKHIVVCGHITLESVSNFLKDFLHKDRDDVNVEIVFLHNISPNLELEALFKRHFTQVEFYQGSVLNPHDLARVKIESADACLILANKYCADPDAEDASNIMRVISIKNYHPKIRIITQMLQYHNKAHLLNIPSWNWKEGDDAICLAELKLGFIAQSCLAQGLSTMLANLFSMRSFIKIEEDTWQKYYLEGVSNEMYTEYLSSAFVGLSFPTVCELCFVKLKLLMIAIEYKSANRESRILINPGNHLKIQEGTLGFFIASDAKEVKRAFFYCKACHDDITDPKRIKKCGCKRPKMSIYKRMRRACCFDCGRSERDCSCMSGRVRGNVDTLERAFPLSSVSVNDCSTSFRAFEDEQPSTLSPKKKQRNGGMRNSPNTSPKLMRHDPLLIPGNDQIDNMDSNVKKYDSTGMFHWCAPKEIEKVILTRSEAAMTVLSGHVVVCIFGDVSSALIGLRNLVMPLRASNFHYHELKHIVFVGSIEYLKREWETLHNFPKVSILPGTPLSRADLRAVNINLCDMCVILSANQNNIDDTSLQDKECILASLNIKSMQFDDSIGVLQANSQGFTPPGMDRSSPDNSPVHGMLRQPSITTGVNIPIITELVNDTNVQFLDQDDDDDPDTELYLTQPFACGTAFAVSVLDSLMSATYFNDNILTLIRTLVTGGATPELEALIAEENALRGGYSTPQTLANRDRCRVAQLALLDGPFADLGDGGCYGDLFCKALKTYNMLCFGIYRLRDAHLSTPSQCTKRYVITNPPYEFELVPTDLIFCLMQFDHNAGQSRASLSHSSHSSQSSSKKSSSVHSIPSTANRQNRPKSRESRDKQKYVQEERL
For the compound `O=C(CCc1ccc(O)cc1)c1c(O)cc(O)cc1O`, the Maxi-K current, % of control turned out to be 120%.

`O=C(/C=C/c1ccccc1)c1ccccc1`: the Maxi-K current, % of control is 82.4%.

Turning to `O=c1cc(-c2ccccc2)oc2ccccc12`, the Maxi-K current, % of control was determined as 103%.

Consider `COc1cc(OC)c2c(=O)c(OC)c(-c3ccc(OC)c(OC)c3)oc2c1`, for which the Maxi-K current, % of control came out at 94.6%.

As for `O=c1cc(-c2ccc(O)cc2)oc2cc(O)cc(O)c12`, the Maxi-K current, % of control was determined as 159%.

On to `CC(=O)Nc1ccc(O)c(C(=O)/C=C/c2ccccc2)c1`, for which the Maxi-K current, % of control amounted to 81.5%.

Consider `O=c1c(O)c(-c2ccc(O)cc2)oc2cc(O)cc(O)c12`, for which the Maxi-K current, % of control was determined as 167%.

For the compound `O=c1[nH]c2cc(C(F)(F)F)ccc2n1-c1cc(Cl)ccc1O`, the Maxi-K current, % of control turned out to be 132%.

On to `O=C(/C=C/c1cccc([N+](=O)[O-])c1)c1ccccc1O`, for which the Maxi-K current, % of control stood at 74.4%.

(Values after ChEMBL document CHEMBL1151609, “The discovery of novel openers of Ca2+-dependent large-conductance potassium channels: Pharmacophore search and physiological evaluation of flavonoids” (Bioorg Med Chem Lett, 1997).)
